The subject of data set [1] is Plasmodium falciparum F32-ART (artemisinin-resistant strain). The data set can be described thus: Standard chemosensitivity assay (SYBR Green I), F32-ART. The format is cell-based. Particulars: for IC50: Plasmodium falciparum, read-out: Antiplasmodial Activity: IC50, F32-ART; for Selectivity Index CC50/IC50: ratio cytotoxicity (mammalian cell type of the CC50)/antiplasmodial activity on F32-ART. How it is done: (§1) They differ by eight mutations in seven genes (PF3D7_0110400, PF3D7_1343700, PF3D7_0213400, PF3D7_1115700, PF3D7_1302100, PF3D7_1459600, PF3D7_1464500) among them the M476I mutation on the kelch13 gene. F32-ART and F32-TEM strains have RSA^0–3 h values up to 12% and less than 0.1%, respectively. […] Both strains were cultured, in the same conditions, according to the Trager and Jensen protocol with modifications. Briefly, parasites were cultivated in RPMI-1640 medium (Biowest) at 2% hematocrit in human red blood cells and 5% human serum (EFS, French Blood Bank) under 5% CO2 in a humid atmosphere at 37 °C.
(§2) The antimalarial activities of the compounds were evaluated on both strains. […] Antimalarial activities were determined with the SYBR Green I method. Each drug concentration was tested in triplicate. The parasites were incubated with the drugs for 48 h. Plates were read on a BioTek FLX800 Microplate Fluorescence Reader (Bio-Tek instruments, Winooski, VT, USA) (λexcitation = 485 nm, λemission = 528 nm). Control parasite culture (i.e., RPMI with 0.5% DMSO) was referred to as 100% growth. IC50 and IC90 values were determined using GraphPad Prism version 7.05 (GraphPad Software, San Diego, CA, USA). Results were the mean of 3 independent experiments. When it is relevant, statistical significance between results obtained with both parasite strains was determined by a Mann–Whitney test using GraphPad Prism version 7.05.

Data set [2] concerns Plasmodium falciparum F32-TEM (artemisinin-sensitive twin line). As to the kind of experiment: Standard chemosensitivity assay (SYBR Green I), F32-TEM. The format is cell-based. The following applies: Plasmodium falciparum, read-out: Antiplasmodial Activity: IC50, F32-TEM. The method, then: as §1, §2
The subject of data set [3] is NIH3T3. Further details: method as in PMID 28644986. The following applies: data from literature ref 50, read-out: Cytotoxicity: CC50 (NIH3T3); cited from earlier work.
Data set [4] relates to HL-60. Particulars: read-out: Cytotoxicity: CC50 (HL-60), data from literature ref 49; cited from earlier work.
For data set [5], the system named is HeLa. Particulars: cited from earlier work.
In data set [6] the test system is human mesenchymal stem. Also on record: method as in PMID 30237855. Particulars: data from literature ref 53, read-out: Cytotoxicity: CC50 (human mesenchymal stem); cited from earlier work.
The test system of data set [7] is monocytes. Also on record: method as in PMID 27091512. The following applies: data from literature ref 47, read-out: Cytotoxicity: CC50 (monocytes); cited from earlier work.
Data set [8] relates to NOMO1. Particulars: read-out: Cytotoxicity: CC50 (NOMO1), data from literature ref 51; cited from earlier work.
Data set [9] in a line: Cytotoxicity evaluation by MTT assay. The format is cell-based. The following applies: monkey, Vero cells, * mean of 2 experiments. The method, then: The cytotoxicity of all newly synthesized compounds was evaluated on the Vero cell lines (isolated from monkey kidney cells, gift from the Faculty of Pharmacy, Toulouse, France) by MTT assay according to Mosmann with slight modifications. Briefly, cells in MEM medium supplemented with 10% fetal calf serum, 2 mM L-glutamine, antibiotics (100 U/mL penicillin and 100 µg/mL streptomycin), and NEAA 1X, were seeded in 96-well plates. After a 24-h incubation at 37 °C and 5% CO2 in a humidified atmosphere, compounds were added with concentrations ranging from 5 nM to 50 μM in duplicate. […] The security index was calculated as the ratio of cytotoxicity/antiplasmodial activity.

Data set [10] has as its system P. falciparum strains F32-ART and F32-TEM. The data set can be described thus: Standard chemosensitivity assay, both strains. The format is cell-based. Particulars: Plasmodium falciparum, F32, read-out: Antiplasmodial activity IC50. How it is done:
as §2

The subject of data set [11] is ART-resistant parasites F32-ART at the quiescent stage. The data set can be described thus: Quiescent-stage Survival Assay (QSA), 48-h exposure. The format is cell-based, Plasmodium falciparum. The method, then: The sensitivity of the ART-resistant parasites F32-ART at the quiescent stage towards the different molecules was determined using the QSA (Quiescent-stage Survival Assay), as previously described.
Epidrugs were tested at their IC90 values. In the present study, quiescence was induced using 3 µM of ART or 700 nM of DHA [28]. Thus, D-sorbitol synchronized ring-stage parasites at 3% parasitemia and 2% hematocrit (5 mL of culture per well in 6-well plates) were first exposed to 6 h of ART or DHA to induce quiescence and then to 48 h of the combination “ART or DHA + compound to be tested”. The combinations “ART 6 h/ART 48 h” or “DHA 6 h/DHA 48 h” were used as controls. The compounds were evaluated, in parallel, on proliferating parasites, i.e., without any pre-treatment. After drug exposure, parasite cultures were washed with 40 mL of RPMI-1640 medium and cultured in drug-free conditions supplemented with 10% human serum in new wells. The parasitemia for each condition was then microscopically monitored every 2 days. Culture media were renewed twice a week and 25 µL of fresh red blood cells were added once a week. Obtained data were used to perform Kaplan–Meier survival analyses considering censored data. The outcome was defined as the day when parasite cultures reached the initial parasitemia (3%) and data were considered as censored if no parasite recrudescence was observed during the 30-day experiment timeframe. When relevant, statistical significance between results obtained for the conditions “ART/ART” and “ART/ART + compound to be tested” or “DHA/DHA” and “DHA/DHA + compound to be tested” was determined by a Log Rank (Mantel Cox) test using GraphPad Prism version 7.05. For the best compounds targeting histones, in order to compare western blots data, modified QSAs were carried out by comparing “DHA 6 h/DHA 24 h” versus “DHA 6 h/DHA + compound to be tested 24 h”.

For data set [12], the system named is H4IIErat. The following applies: read-out: Cytotoxicity: CC50 (H4IIErat), data from literature ref 54; cited from earlier work.
Data set [13] has as its system GM15850. Further details: method as in PMID 18953021. Particulars: data from literature ref 46, read-out: Cytotoxicity: CC50 (GM15850); cited from earlier work.
The mark [14] stands for this setting: F32-ART, 48 h incubation, SYBR Green I, mean ± SEM of 3 experiments (* mean of 2).
The mark [15] stands for this setting: F32-TEM, 48 h incubation, SYBR Green I, mean ± SEM of 3 experiments (* mean of 2).

Read-outs that look alike come from different tables or passages of the source.

Turning to `C#CCN(Cc1ccc2nc(N)[nH]c(=O)c2c1)c1ccc(C(=O)N[C@@H](CCC(=O)O)C(=O)O)cc1` [CB3717], the IC50 in data set [1] (setting [14]) and in data set [2] (setting [15]) was 1000 nM in each case. Further, in data set [1], the “Selectivity Index CC50/IC50” value was above 20. Besides, the CC50 in data set [3] is above 20 µM.

With `CN1C(=O)[C@@]23C[C@]4([C@]56C[C@@]78SS[C@@](CO)(C(=O)N7[C@H]5Nc5ccccc56)N(C)C8=O)c5ccccc5N[C@@H]4N2C(=O)[C@]1(CO)SS3` [Chaetocin], the values for the IC50 in [1] (setting [14]) and in data set [2] (setting [15]) were 640 ± 160 nM and 730 ± 90 nM, respectively. Further, the “Selectivity Index CC50/IC50” value in data set [1] was 0.2. For the same molecule, the CC50 in [4] is 130 nM.

For the molecule `NNc1nncc2ccccc12` [Hydralazine], the IC50 in [1] (setting [14]) and in data set [2] (setting [15]) was above 10000 nM throughout. In data set [1], the “Selectivity Index CC50/IC50” value is below 4. In data set [5], the CC50 is 40 µM.

With `Clc1ccc(N/N=C(\c2ccccc2)c2ccccn2)nc1` [JIB-04], the IC50 – broadly, the concentration that gives 50% inhibition – in data set [1] (setting [14]) is 560 ± 80 nM; in [2] (setting [15]), 940 ± 30 nM. The “Selectivity Index CC50/IC50” value in data set [1] is given as above 18. In addition, the CC50 in data set [6] is above 10 µM.

Turning to `Cn1cc(/C=C/C(=O)c2cccc(F)c2)cc1/C=C/C(=O)NO` [MC 1568], the IC50 in data set [1] (setting [14]) and in [2] (setting [15]) was above 10000 nM throughout. Besides, the “Selectivity Index CC50/IC50” value in data set [1] was below 1. Further, the CC50 in data set [7] was 10 µM.

As to `CCCCCCCc1ccc(CCc2cccc(O)c2C(=O)O)cc1` [MG149], the IC50 in [1] (F32, 48 h) is above 10000 nM; in data set [2] (F32, 48 h), above 10000 nM. In addition, in data set [8], the CC50 is 51 µM.

For `Cc1ncsc1-c1ccc(CNC(=O)[C@@H]2C[C@@H](O)CN2C(=O)[C@@H](NC(=O)COCCOCCOCCNC(=O)C[C@@H]2N=C(c3ccc(Cl)cc3)c3c(sc(C)c3C)-n3c(C)nnc32)C(C)(C)C)cc1` [MZ1], the IC50 in data set [1] (setting [14]) is 1700 nM; in [2] (setting [15]), 1300 nM; in data set [10] it was 1300 to 1700 nM. For the same molecule, the “Selectivity Index CC50/IC50” value in data set [1] is reported as above 30. In data set [9], the CC50 is above 50 µM.

As for `Cc1cc(Nc2ccc(NC(=O)c3ccc(Nc4ccnc5ccccc45)cc3)cc2)nc(N)n1` [SGI-1027], the IC50 in data set [1] (setting [14]) came to 63 ± 13 nM; in data set [2] (setting [15]), 54 ± 22 nM. In data set [1], the “Selectivity Index CC50/IC50” value was above 790. For the same molecule, the “Delay in parasite recrudescence time (difference between median recrudescence times), ART/ART + compound vs ART/ART” value in [11] (quiescence induced with ART 3 µM 6 h, then 48 h ART + compound at its IC90) is on record as 8 days. Also, in [11] (quiescence induced with DHA 700 nM 6 h, then 48 h DHA + compound at its IC90), the “Delay in recrudescence time, DHA/DHA + compound vs DHA/DHA” value was at least 6 days. Also, the CC50 in [12] was above 50 µM.

Regarding `Cc1ccc(NC(=O)CCCCCC(=O)Cc2ccccc2N)cc1` [TC-H 106], the IC50 in [1] (setting [14]) and in data set [2] (setting [15]) was above 10000 nM in each case. Further, the “Selectivity Index CC50/IC50” value in data set [1] is on record as below 0.6. The CC50 in data set [13] is 6.3 µM.

The values above are taken from PMC10610379, “Epidrugs as Promising Tools to Eliminate Plasmodium falciparum Artemisinin-Resistant and Quiescent Parasites” (Pharmaceutics, 2023).
